In PubChem BioAssay AID1918991 (Molecular Pharmacology Branch, DTP, NCI, 2023):
“And” between values parts separate entries of the source, which are not always exact repeats. Identical values can stand only once.

System: 186277-243-T-J2-PDC complex spheroid growth
Assay: Anticancer human tumor 186277-243-T-J2-PDC patient-derived colon adenocarcinoma cell line growth inhibition [AhR]
Conditions: for IC50: curve of first compound; for viability, T/C: stronger effect = lower value
How it was run: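 Spheroids combined tumor cells with HUVEC endothelial cells and human MSCs as stroma. AhR antagonists were paired with standard or investigational drugs, each dosed in half-log steps down from near clinical Cmax, or from 10 microM where Cmax was unknown.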

[1] = second compound 0.1 µM, first compound 0.0316 µM
[2] = second compound 0.1 µM, first compound 0.1 µM
[3] = second compound 0.1 µM, first compound 0.316 µM
[4] = second compound 0.1 µM, first compound 1 µM
[5] = second compound 0.1 µM, first compound 3.16 µM
[6] = second compound 0.1 µM, first compound 10 µM
[7] = second compound 0.316 µM, first compound 0.0316 µM
[8] = second compound 0.316 µM, first compound 0.1 µM
[9] = second compound 0.316 µM, first compound 0.316 µM
[10] = second compound 0.316 µM, first compound 1 µM
[11] = second compound 0.316 µM, first compound 3.16 µM
[12] = second compound 0.316 µM, first compound 10 µM
[13] = second compound 1 µM, first compound 0.0316 µM
[14] = second compound 1 µM, first compound 0.1 µM
[15] = second compound 1 µM, first compound 0.316 µM
[16] = second compound 1 µM, first compound 1 µM
[17] = second compound 1 µM, first compound 3.16 µM
[18] = second compound 1 µM, first compound 10 µM
[19] = second compound 3.16 µM, first compound 0.0316 µM
[20] = second compound 3.16 µM, first compound 0.1 µM
[21] = second compound 3.16 µM, first compound 0.316 µM
[22] = second compound 3.16 µM, first compound 1 µM
[23] = second compound 3.16 µM, first compound 3.16 µM
[24] = second compound 3.16 µM, first compound 10 µM
[25] = second compound 10 µM, first compound 0.0316 µM
[26] = second compound 10 µM, first compound 0.1 µM
[27] = second compound 10 µM, first compound 0.316 µM
[28] = second compound 10 µM, first compound 1 µM
[29] = second compound 10 µM, first compound 3.16 µM
[30] = second compound 10 µM, first compound 10 µM
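Also: spheroids exposed to compounds for seven days before the viability read.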
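For viability, T/C in this document: luminescent signal used as a stand-in for viable cell amount; 100% = DMSO vehicle control wells.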

`COc1cc(Nc2ncc3c(n2)-c2ccc(Cl)cc2C(c2c(F)cccc2OC)=NC3)ccc1C(=O)O` + CC(CO)NC(=O)c1cc(-c2ccc(Cl)cc2)nn(-c2cnn(C)c2)c1=O showed an IC50 (second compound 0.1 µM) of less than 31.6 nM, an IC50 (second compound 0.316 µM) of less than 31.6 nM and an IC50 (second compound 1 µM) of less than 31.6 nM. The IC50 (second compound 3.16 µM) was less than 31.6 nM, the IC50 (second compound 10 µM) was less than 31.6 nM and the viability, T/C [1] was 27.6%. For the same molecule, the viability, T/C [2] was 22.9%, the viability, T/C [3] was 21.5% and the viability, T/C [4] was 20.5%. For the same molecule, the viability, T/C [5] was 22.3%, the viability, T/C [6] was 27.9% and the viability, T/C [7] was 26.1%. The viability, T/C [8] was 23.8%, the viability, T/C [9] was 22.4% and the viability, T/C [10] was 18.9%. For the same molecule, the viability, T/C [11] was 22.7%, the viability, T/C [12] was 22.7% and the viability, T/C [13] was 30.3%. It also gave a viability, T/C [14] of 22%, a viability, T/C [15] of 21.9% and a viability, T/C [16] of 20.7%. It also gave a viability, T/C [17] of 22.2%, a viability, T/C [18] of 25% and a viability, T/C [19] of 26.1%. It also gave a viability, T/C [20] of 24.2%, a viability, T/C [21] of 20.7% and a viability, T/C [22] of 19.3%. For the same molecule, the viability, T/C [23] was 23%, the viability, T/C [24] was 26% and the viability, T/C [25] was 23.6%. For the same molecule, the viability, T/C [26] was 22.3%, the viability, T/C [27] was 21.5% and the viability, T/C [28] was 21.2%. The viability, T/C [29] was 23.4% and the viability, T/C [30] was 26.1%.

For `COc1cc(Nc2ncc3c(n2)-c2ccc(Cl)cc2C(c2c(F)cccc2OC)=NC3)ccc1C(=O)O`, the viability, T/C (compound 0.0316 µM) was 95.8% and 121% and 27.3%, the viability, T/C (compound 0.1 µM) was 83.4% and 121% and 22.3% and the viability, T/C (compound 0.316 µM) was 74.4% and 119% and 20.1%. The viability, T/C (compound 1 µM) was 69.7% and 114% and 18.9%, the viability, T/C (compound 3.16 µM) was 79.1% and 117% and 22.9% and the viability, T/C (compound 10 µM) was 81.5% and 123% and 25.9%.

Work on `COc1cccc2c1C(=O)c1c(O)c3c(c(O)c1C2=O)CC(O)(C(=O)CO)CC3OC1CC(N)C(O)C(C)O1` (stereo unspecified) + Cc1ccccc1N=Nc1ccc(NC(=O)c2ccnn2C)c(C)c1 yielded an IC50 (second compound 0.1 µM) of 456 nM, an IC50 (second compound 0.316 µM) of 446 nM and an IC50 (second compound 1 µM) of 487 nM. It also gave an IC50 (second compound 3.16 µM) of 463 nM, an IC50 (second compound 10 µM) of 440 nM and a viability, T/C [1] of 158%. The viability, T/C [2] was 147%, the viability, T/C [3] was 71% and the viability, T/C [4] was 4.6%. The viability, T/C [5] was 0.4%, the viability, T/C [6] was 0.61% and the viability, T/C [7] was 161%. It also gave a viability, T/C [8] of 138%, a viability, T/C [9] of 70% and a viability, T/C [10] of 4.18%. For the same molecule, the viability, T/C [11] was 0.3%, the viability, T/C [12] was 1.25% and the viability, T/C [13] was 161%. The viability, T/C [14] was 136%, the viability, T/C [15] was 77.1% and the viability, T/C [16] was 4.8%. The viability, T/C [17] was 0.42%, the viability, T/C [18] was 0.91% and the viability, T/C [19] was 152%. For the same molecule, the viability, T/C [20] was 133%, the viability, T/C [21] was 72.9% and the viability, T/C [22] was 3.91%. It also gave a viability, T/C [23] of 0.08%, a viability, T/C [24] of 1.27% and a viability, T/C [25] of 131%. For the same molecule, the viability, T/C [26] was 120%, the viability, T/C [27] was 68.9% and the viability, T/C [28] was 2.85%. For the same molecule, the viability, T/C [29] was 0.25% and the viability, T/C [30] was 0.52%.

`NS(=O)(=O)OCC1CC(n2ccc3c(NC4CCc5ccccc54)ncnc32)CC1O` (stereo unspecified) + Cc1cncc(-c2nc(NCCc3c[nH]c4ccccc34)c3ncn(C(C)C)c3n2)c1 showed an IC50 (second compound 0.1 µM) of 693 nM, an IC50 (second compound 0.316 µM) of 563 nM and an IC50 (second compound 1 µM) of 492 nM. For the same molecule, the IC50 (second compound 3.16 µM) was 365 nM, the IC50 (second compound 10 µM) was 41 nM and the viability, T/C [1] was 114%. It also gave a viability, T/C [2] of 93.1%, a viability, T/C [3] of 80.4% and a viability, T/C [4] of 35.6%. It also gave a viability, T/C [5] of 13.2%, a viability, T/C [6] of 3.87% and a viability, T/C [7] of 104%. It also gave a viability, T/C [8] of 96.2%, a viability, T/C [9] of 71.4% and a viability, T/C [10] of 28.6%. It also gave a viability, T/C [11] of 9.15%, a viability, T/C [12] of 3.24% and a viability, T/C [13] of 96%. For the same molecule, the viability, T/C [14] was 89.8%, the viability, T/C [15] was 67.6% and the viability, T/C [16] was 22.2%. The viability, T/C [17] was 5.08%, the viability, T/C [18] was 2.62% and the viability, T/C [19] was 91.8%. The viability, T/C [20] was 86.8%, the viability, T/C [21] was 52.2% and the viability, T/C [22] was 21.3%. For the same molecule, the viability, T/C [23] was 5%, the viability, T/C [24] was 2.12% and the viability, T/C [25] was 57.8%. For the same molecule, the viability, T/C [26] was 24.4%, the viability, T/C [27] was 9.9% and the viability, T/C [28] was 7.65%. The viability, T/C [29] was 2.02% and the viability, T/C [30] was 1.58%.
